Data: the supplement of paper PMC10307832

How the values were obtained:
Assay in all cases: relative viability (nuclei count vs DMSO), 5 days (fraction); higher = more cells survive
Ricolinostat + Lapatinib = compound: O=C(CCCCCCNC(=O)c1cnc(N(c2ccccc2)c2ccccc2)nc1)NO [Ricolinostat] + CS(=O)(=O)CCNCc1ccc(-c2ccc3ncnc(Nc4ccc(OCc5cccc(F)c5)c(Cl)c4)c3c2)o1 [Lapatinib] (partner 2 µM)
Method in brief: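 Medians of duplicate plates are given as relative viability. That measure is the nuclei count in treated wells divided by the count in vehicle wells. Counts were taken on 4× images of lung cancer cell lines in 1536-well plates, 5 days after pin-tool dosing the day after seeding with one drug alone or a fixed anchor-drug dose plus five library-drug doses (not always all listed) in √10 steps.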

[1] = compound: C1=CC=C(C(=C1)C2=CC=C(C=C2)C3=CSC4=C3C(=C(C(=O)N4)C#N)O)O
Method in brief: (§1)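 A plate was accepted only when its control CV was below 25% and the cells had doubled at least once. Viability is defined from nuclear counts as treated wells divided by vehicle wells, with the median taken across plates. That median covers lung cancer cell lines grown in 1536-well plates, dosed by pinning at five √10-spaced library-drug concentrations, and counted in MetaXpress from 4× Hoechst images after 5 days.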

Ricolinostat = compound: O=C(CCCCCCNC(=O)c1cnc(N(c2ccccc2)c2ccccc2)nc1)NO [Ricolinostat]
Method in brief: as §1

TGX 221 = compound: CC1=CN2C(=O)C=C(N=C2C(=C1)C(C)NC3=CC=CC=C3)N4CCOCC4 [TGX 221]
Method in brief: as §1

Cell Line NCI-H1792 has a relative viability (Ricolinostat + Lapatinib; first compound 0.08 µM) of 0.719, a relative viability (Ricolinostat + Lapatinib; first compound 0.253 µM) of 0.918 and a relative viability (Ricolinostat + Lapatinib; first compound 0.8 µM) of 0.863. It also gave a relative viability (Ricolinostat + Lapatinib; first compound 2.53 µM) of 1.01, a relative viability ([1]; 0.253 µM) of 1.01 and a relative viability ([1]; 0.8 µM) of 0.723. The relative viability ([1]; 2.53 µM) was 0.921, the relative viability ([1]; 8 µM) was 0.446 and the relative viability (Ricolinostat; 0.08 µM) was 0.599. The relative viability (Ricolinostat; 0.253 µM) was 0.938, the relative viability (Ricolinostat; 0.8 µM) was 0.754 and the relative viability (Ricolinostat; 2.53 µM) was 0.57. For the same cell line, the relative viability (TGX 221; 0.08 µM) was 0.749, the relative viability (TGX 221; 0.253 µM) was 0.878 and the relative viability (TGX 221; 0.8 µM) was 1. The relative viability (TGX 221; 2.53 µM) was 0.883 and the relative viability (TGX 221; 8 µM) was 0.864.
